Results as given in patent US20240409585A1, “MACROCYCLIC IMMUNOMODULATORS” (priority 2021, published 2024).
Numbered stars: 1 amine (or outer) side, 2 acyl side, 3 side chain; on linkers, the order of the positions; unused ones are H or OH. Bridge positions count the residues as written; N and C are the ends. Square brackets hold non-standard residues; d marks the D form. Peptide text beside a SMILES is read from it. * marks the point of attachment. ξ: configuration not given here. X21 = CN(C)P(=O)(Oc1ccc(C[C@H](N[*:1])C(=O)[*:2])cc1)N(C)C; X33 = O=C([C@H](Cc1ccc(-c2cccc(Cl)c2)cc1)N[*:1])[*:2]; Phe(4-COOH) = N[C@@H](Cc1ccc(C(=O)O)cc1)C(=O)O; Bip = N[C@@H](Cc1ccc(-c2ccccc2)cc1)C(=O)O; Phe(3-Me) = Cc1cccc(C[C@H](N)C(=O)O)c1; Cyclopropanecarbonyl = O=C(C1CC1)*; Val(3-OH) = CC(C)(O)[C@H](N)C(=O)O; 4Pal = N[C@@H](Cc1ccncc1)C(=O)O; Cha = N[C@@H](CC1CCCCC1)C(=O)O; Cit = NC(=O)NCCC[C@H](N)C(=O)O; Ile(3ξ) = CCC(C)[C@H](N)C(=O)O; Thr(3ξ) = CC(O)[C@H](N)C(=O)O; ξCha = NC(CC1CCCCC1)C(=O)O; Carboxymethyl = O=C(O)C*; NMeA = CN[C@@H](C)C(=O)O; Orn = NCCC[C@H](N)C(=O)O; Pra = C#CC[C@H](N)C(=O)O; Dab = NCC[C@H](N)C(=O)O

molecular target: T1, PE-labeled human PD-L1-Ig binding to Jurkat cell line over-expressing human PD-1 (Jurkat-PD-1) (Homo sapiens, UniProt Q15116); assay: Jurkat-PD-1 Cell Binding High-Content Screening Assay (CBA): Method 1; conditions: Jurkat HPDL1 PD1 IC50 (uM) (Method 1), Jurkat-hPD-1 cells, PE-labeled PD-L1-Ig 20 nM final
T1 construct: expressed in transfected cells; host or cells: Jurkat
T1 sequence (Q15116 25-288): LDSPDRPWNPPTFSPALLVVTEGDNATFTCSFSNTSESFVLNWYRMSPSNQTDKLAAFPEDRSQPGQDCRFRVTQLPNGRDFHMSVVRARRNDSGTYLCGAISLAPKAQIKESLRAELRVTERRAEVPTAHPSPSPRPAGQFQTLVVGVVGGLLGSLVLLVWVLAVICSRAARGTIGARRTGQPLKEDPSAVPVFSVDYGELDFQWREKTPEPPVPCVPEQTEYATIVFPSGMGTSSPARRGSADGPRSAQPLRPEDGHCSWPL

Compound	IC50 [µM]
CC(C)C[C@@H]1NC(=O)[C@H](Cc2c[nH]c3ccccc23)NC(=O)[C@H](CC(=O)O)NC(=O)[C@H](Cc2ccc(OP(=O)(N(C)C)N(C)C)cc2)NC(=O)[C@H](Cc2ccccc2)NC(=O)CSC[C@@H](C(=O)N[C@@H](C)C(N)=O)NC(=O)[C@H](CO)NC(=O)[C@H](C(C)C)NC(=O)[C@H](CC(C)C)NC(=O)[C@H](CC(N)=O)NC(=O)[C@@H](C)NC(=O)[C@H](C)N(C)C(=O)[C@H](C(C)C)NC(=O)[C@H](Cc2ccc(-c3ccccc3)cc2)NC1=O [Compound 1764] ({CH2CO}-F[X21]DWL[Bip]V[NMeA][dA]NLVSCA-NH2; thioether N-14)	0.04

same assay, conditions: Jurkat-PD-1 cells, PE-labeled PD-L1-Ig; μM; read-out: CBA Method 1 μM

IC50 [µM]	Compound
0.02	CCC(C)[C@@H]1NC(=O)[C@H](Cc2ccc(-c3ccccc3)cc2)NC(=O)[C@H](C(C)C)NC(=O)[C@H](Cc2cccc(C)c2)NC(=O)[C@H](CC(=O)O)NC(=O)[C@H](Cc2ccc(OCC(=O)O)cc2)NC(=O)[C@H](C(C)O)NC(=O)CSC[C@@H](C(=O)N[C@@H](CO)C(=O)NCC(=O)N[C@H](CO)C(N)=O)NC(=O)[C@H](C(C)O)NC(=O)[C@H](C(C)C)NC(=O)C(CC2CCCCC2)NC(=O)[C@H](CCN)NC(=O)[C@@H](CC(C)C)NC(=O)[C@H](C)N(C)C1=O (stereo partly drawn) [Example 5005] ({CH2CO}-[Thr(3ξ)]Y(Carboxymethyl)D[Phe(3-Me)]V[Bip][Ile(3ξ)][NMeA][dL][Dab][ξCha]V[Thr(3ξ)]CSG[dS]-NH2; thioether N-14)

same assay, conditions: Jurkat-hPD-1 cells, PE-labeled PD-L1-Ig 20 nM final; read-out: Jurkat HPDL1 PD1 IC50 (uM) (Method 1)

IC50 [µM]	Compound
0.03	CC[C@H](C)[C@@H]1NC(=O)[C@H](Cc2ccc(-c3ccccc3)cc2)NC(=O)[C@H](C(C)C)NC(=O)[C@H](Cc2c[nH]c3ccccc23)NC(=O)[C@H](CC(=O)O)NC(=O)[C@H](Cc2ccc(O)cc2)NC(=O)[C@H](Cc2ccccc2)NC(=O)CSC[C@@H](C(=O)N[C@@H](C)C(N)=O)NC(=O)[C@H]([C@@H](C)O)NC(=O)[C@H](C(C)C)NC(=O)[C@H](CC(C)C)NC(=O)[C@H](CCN)NC(=O)[C@@H](CC(C)C)NC(=O)[C@H](C)N(C)C1=O [Compound 1393] ({CH2CO}-FYDWV[Bip]I[NMeA][dL][Dab]LVTCA-NH2; thioether N-14)
0.04	CCC(C)[C@@H]1NC(=O)[C@H](Cc2ccc(-c3ccccc3)cc2)NC(=O)[C@H](CC(C)C)NC(=O)[C@H](Cc2c[nH]c3ccccc23)NC(=O)[C@H](CC(=O)O)NC(=O)[C@H](Cc2ccc(OCC(=O)O)cc2)NC(=O)[C@H](C(C)O)NC(=O)CSC[C@@H](C(=O)N[C@@H](CC(N)=O)C(=O)O)NC(=O)[C@H](CO)NC(=O)[C@H](C(C)C)NC(=O)[C@H](CC(C)C)NC(=O)[C@H](CCN)NC(=O)[C@@H](CC(C)C)NC(=O)[C@H](C)N(C)C1=O (stereo partly drawn) [Compound 2220] ({CH2CO}-[Thr(3ξ)]Y(Carboxymethyl)DWL[Bip][Ile(3ξ)][NMeA][dL][Dab]LVSCN-OH; thioether N-14)
0.24	CC(C)C[C@@H]1NC(=O)[C@H](CCN)NC(=O)[C@@H](CC(C)C)NC(=O)[C@H](C)N(C)C(=O)[C@H](CCCNC(=N)N)NC(=O)[C@H](Cc2ccc(-c3ccccc3)cc2)NC(=O)[C@H](C(C)C)NC(=O)[C@H](Cc2c[nH]c3ccccc23)NC(=O)[C@H](CC(=O)O)NC(=O)[C@H](Cc2cnc[nH]2)NC(=O)[C@H](Cc2cnc[nH]2)NC(=O)CSC[C@@H](C(=O)N[C@@H](C)C(N)=O)NC(=O)[C@H]([C@@H](C)O)NC(=O)[C@H](C(C)C)NC1=O [Compound 1142] ({CH2CO}-HHDWV[Bip]R[NMeA][dL][Dab]LVTCA-NH2; thioether N-14)
0.12	CC(C)C[C@@H]1NC(=O)[C@H](Cc2c[nH]c3ccccc23)NC(=O)[C@H](CC(=O)O)NC(=O)[C@H](Cc2ccc(O)cc2)NC(=O)[C@H](Cc2ccccc2)NC(=O)CSC[C@@H](C(=O)N[C@@H](C)C(N)=O)NC(=O)[C@H]([C@@H](C)O)NC(=O)[C@H](CCCNC(=N)N)NC(=O)[C@H](CC(C)C)NC(=O)[C@H](CC(N)=O)NC(=O)[C@@H](C)NC(=O)[C@H](C)N(C)C(=O)[C@H](C(C)C)NC(=O)[C@H](Cc2ccc(-c3ccccc3)cc2)NC1=O [Compound 1789] ({CH2CO}-FYDWL[Bip]V[NMeA][dA]NLRTCA-NH2; thioether N-14)
0.09	CC(C)C[C@@H]1NC(=O)[C@H](CCCNC(=N)N)NC(=O)[C@@H](CC(C)C)NC(=O)[C@H](C)N(C)C(=O)[C@H](CCCNC(=N)N)NC(=O)[C@H](Cc2ccc(-c3ccccc3)cc2)NC(=O)[C@H](C(C)C)NC(=O)[C@H](Cc2c[nH]c3ccccc23)NC(=O)[C@H](CC(=O)O)NC(=O)[C@H](Cc2ccc(O)cc2)NC(=O)[C@H](CC(N)=O)NC(=O)CSC[C@@H](C(=O)N[C@@H](C)C(N)=O)NC(=O)[C@H](CCCN)NC(=O)[C@H](C(C)C)NC1=O [Compound 1252] ({CH2CO}-NYDWV[Bip]R[NMeA][dL]RLV[Orn]CA-NH2; thioether N-14)
0.02	Cc1cccc(C[C@@H]2NC(=O)[C@H](CC(=O)O)NC(=O)[C@H](Cc3ccc(OCC(=O)O)cc3)NC(=O)[C@H](CCCNC(=O)C3CC3)NC(=O)CSC[C@@H](C(=O)N[C@@H](CO)C(N)=O)NC(=O)[C@H](CO)NC(=O)[C@H](C(C)O)NC(=O)C(CC3CCCCC3)NC(=O)[C@H](CCCNC(=N)N)NC(=O)[C@@H](CC(C)C)NC(=O)[C@H](C)N(C)C(=O)[C@H](CCCNC(N)=O)NC(=O)[C@H](Cc3ccc(-c4ccccc4)cc3)NC(=O)[C@H](C(C)C)NC2=O)c1 (stereo partly drawn) [Compound 2113] ({CH2CO}-[Orn](Cyclopropanecarbonyl)Y(Carboxymethyl)D[Phe(3-Me)]V[Bip][Cit][NMeA][dL]R[ξCha][Thr(3ξ)]SCS-NH2; thioether N-14)
0.09	CC(C)C[C@@H]1NC(=O)[C@H](C)NC(=O)[C@@H](C)NC(=O)[C@H](C)N(C)C(=O)[C@H](CCC(=O)O)NC(=O)[C@H](Cc2ccc(-c3ccccc3)cc2)NC(=O)[C@H](CC(C)C)NC(=O)[C@H](Cc2c[nH]c3ccccc23)NC(=O)[C@H](CC(=O)O)NC(=O)[C@H](Cc2ccc(O)cc2)NC(=O)[C@H](Cc2ccccc2)NC(=O)CSC[C@@H](C(=O)N[C@@H](C)C(N)=O)NC(=O)[C@H](CO)NC(=O)[C@H](C(C)C)NC1=O [Compound 1785] ({CH2CO}-FYDWL[Bip]E[NMeA][dA]ALVSCA-NH2; thioether N-14)
0.12	CC(C)C[C@@H]1NC(=O)[C@H](CCN)NC(=O)[C@@H](CC(C)C)NC(=O)[C@H](C)N(C)C(=O)[C@H](CCCNC(=N)N)NC(=O)[C@H](Cc2ccc(-c3cccc(Cl)c3)cc2)NC(=O)[C@H](C(C)C)NC(=O)[C@H](Cc2c[nH]c3ccccc23)NC(=O)[C@H](CC(=O)O)NC(=O)[C@H](Cc2ccc(O)cc2)NC(=O)[C@H](CC(N)=O)NC(=O)CSC[C@@H](C(=O)N[C@@H](C)C(N)=O)NC(=O)[C@H]([C@@H](C)O)NC(=O)[C@H](C(C)C)NC1=O [Compound 1222] ({CH2CO}-NYDWV[X33]R[NMeA][dL][Dab]LVTCA-NH2; thioether N-14)
0.04	CC(C)C[C@@H]1NC(=O)[C@H](CCN)NC(=O)[C@@H](CC(C)C)NC(=O)[C@H](C)N(C)C(=O)[C@H](CCC(=O)O)NC(=O)[C@H](Cc2ccc(-c3ccccc3)cc2)NC(=O)[C@H](C(C)C)NC(=O)[C@H](Cc2c[nH]c3ccccc23)NC(=O)[C@H](CC(N)=O)NC(=O)[C@H](Cc2ccc(O)cc2)NC(=O)[C@H](Cc2ccncc2)NC(=O)CSC[C@@H](C(=O)N[C@@H](C)C(N)=O)NC(=O)[C@H](C(C)O)NC(=O)[C@H](C(C)C)NC1=O (stereo partly drawn) [Compound 2056] ({CH2CO}-[4Pal]YNWV[Bip]E[NMeA][dL][Dab]LV[Thr(3ξ)]CA-NH2; thioether N-14)
0.04	C#CC[C@H](NC(=O)CNC(=O)[C@@H]1CSCC(=O)N[C@@H](Cc2ccc(OCC(=O)O)cc2)C(=O)N[C@@H](Cc2ccc(C(=O)O)cc2)C(=O)N[C@@H](CC(=O)O)C(=O)N[C@@H](Cc2c[nH]c3ccccc23)C(=O)N[C@@H](CC(C)C)C(=O)N[C@@H](Cc2ccc(-c3ccccc3)cc2)C(=O)N[C@@H](C(C)C)C(=O)N(C)[C@@H](C)C(=O)N[C@H](CC(C)C)C(=O)N[C@@H](CCN)C(=O)N[C@@H](CC2CCCCC2)C(=O)N[C@@H](C(C)(C)O)C(=O)N[C@@H](CO)C(=O)N1)C(=O)O [Compound 1935] ({CH2CO}-Y(Carboxymethyl)[Phe(4-COOH)]DWL[Bip]V[NMeA][dL][Dab][Cha][Val(3-OH)]SCG[Pra]-OH; thioether N-14)
0.09	CC(C)C[C@@H]1NC(=O)[C@H](CCCNC(=N)N)NC(=O)[C@@H](Cc2ccccc2)NC(=O)[C@H](C)N(C)C(=O)[C@H](CCCNC(=N)N)NC(=O)[C@H](Cc2ccc(-c3ccccc3)cc2)NC(=O)[C@H](C(C)C)NC(=O)[C@H](Cc2c[nH]c3ccccc23)NC(=O)[C@H](CC(=O)O)NC(=O)[C@H](Cc2ccc(O)cc2)NC(=O)[C@H](Cc2cnc[nH]2)NC(=O)CSC[C@@H](C(=O)NCC(N)=O)NC(=O)[C@H](CO)NC(=O)[C@H](C(C)C)NC1=O [Compound 1031] ({CH2CO}-HYDWV[Bip]R[NMeA][dF]RLVSCG-NH2; thioether N-14)
0.01	CCC(C)[C@@H]1NC(=O)[C@H](Cc2ccc(-c3ccccc3)cc2)NC(=O)[C@H](C(C)C)NC(=O)[C@H](Cc2c[nH]c3ccccc23)NC(=O)[C@H](CC(=O)O)NC(=O)[C@H](Cc2ccc(O)cc2)NC(=O)[C@H](CC(N)=O)NC(=O)CSC[C@@H](C(=O)N[C@@H](C)C(N)=O)NC(=O)[C@H](C(C)O)NC(=O)[C@H](C(C)C)NC(=O)[C@H](CC2CCCCC2)NC(=O)[C@H](CCN)NC(=O)[C@@H](CC(C)C)NC(=O)[C@H](C)N(C)C1=O (stereo partly drawn) [Compound 2061] ({CH2CO}-NYDWV[Bip][Ile(3ξ)][NMeA][dL][Dab][Cha]V[Thr(3ξ)]CA-NH2; thioether N-14)
0.11	CC(C)C[C@@H]1NC(=O)[C@H](CCN)NC(=O)[C@@H](CC(C)C)NC(=O)[C@H](C)N(C)C(=O)[C@H](CC(N)=O)NC(=O)[C@H](Cc2ccc(-c3ccccc3)cc2)NC(=O)[C@H](C(C)C)NC(=O)[C@H](Cc2c[nH]c3ccccc23)NC(=O)[C@H](CC(=O)O)NC(=O)[C@H](Cc2ccc(O)cc2)NC(=O)[C@H](CC(N)=O)NC(=O)CSC[C@@H](C(=O)N[C@@H](C)C(N)=O)NC(=O)[C@H]([C@@H](C)O)NC(=O)[C@H](C(C)C)NC1=O [Compound 1259] ({CH2CO}-NYDWV[Bip]N[NMeA][dL][Dab]LVTCA-NH2; thioether N-14)
